Measured values published in patent publication US10709769B2, “Use of endostatin peptides for the treatment of fibrosis” (University of Pittsburgh—Of the Commonwealth System of …, priority 2009, dated 2020).

Key:
[1] = tested on: human primary lung fibroblasts; test: FN and Col1α1 western blot in TGF-β-treated primary lung fibroblasts; format: cell-based; settings: normal human lung fibroblasts; TGF-β 10 ng/ml 24 h, then 5 μg/ml rE or peptide 48 h; vs TGF-β alone
Method: Human primary lung and skin fibroblasts were cultured. The explanted lungs of normal organ donors, patients with SSc or IPF, and clinically involved skin of SSc patients, a morphea patient and healthy donors were used for primary fibroblast culture. Approximately 2-cm pieces of peripheral lung and skin were minced and fibroblasts were cultured in Dulbecco's modified Eagle's medium (DMEM; Mediatech, Herndon, Va.) supplemented with 10% FBS, penicillin, streptomycin, and anti-mycotic agent, as previously described (Feghali et al., Arthritis Rheum 1999; 42:1451-7). All the cells were used between passages 3-6.
Cellular lysates were obtained from cultured fibroblasts as previously described (Pilewski et al., Am J Pathol 2005; 166:399-407). Briefly, 2.0×10^5 primary fibroblasts were cultured in 35-mm wells in 0.5% FBS-containing medium supplemented with 10 ng/ml of human recombinant TGF-β or PBS as vehicle control for 24 h, following which 5 μg/ml of human rE, endostatin peptides (E1-E4), or DMSO (vehicle) was added for 48 h. In some experiments, endostatin peptides were used without TGF-β stimulation. Cellular lysates were analyzed by western blot. Signals were detected following incubation with horseradish peroxidase-conjugated secondary antibody and chemiluminescence (Perkin Elmer Life Sciences, Inc., Boston, Mass.). The intensity of individual bands with expected molecular sizes was semi-quantitatively analyzed using the image/J® software available at on the internet (/rsb.info.nih.gov/ij/index.html), and normalized to individual GAPDH intensity.
To evaluate whether endostatin modulates production of ECM components in fibroblasts, FN and Col1α1 expression was examined in normal human lung fibroblasts by western blot analysis. Cells were treated with 5 µg/ml rE for 48 h with or without pre-stimulation with human TGF-β for 24 h. […] To define the functional domain of endostatin that mediates its inhibitory effect, four different peptides were synthesized corresponding to different regions of endostatin (Table 1).

[2] = tested on: mouse skin; test: Bleomycin-induced dermal fibrosis in vivo in mouse skin; settings: single administration 10 μg/ml on first day, daily bleomycin s.c., skin harvested after 10 days
Method: FIGS. 8A-8B. The effect of endostatin E-4 on bleomycin induced dermal fibrosis in vivo. A: Mice were injected subcutaneously with 1×PBS as vehicle (V) or Bleomycin (Bleo; 20 μg/mouse) daily. E-4 (10 μg/ml) was mixed with bleomycin on the first day, and daily bleomycin administration was continued without subsequent injections of E4 (Bleo+E-4). Skin was harvested after 10 days. Sections were stained with H&E. Magnification, 100×. B: Graphical summary of dermal thickness data shown in A. Data represent three independent experiments. Mann-Whitney U test was used for statistical analysis. * P<0.001, ** P<0.00001.
E4, a peptide representing the carboxy terminus of human endostatin, can attenuate fibrosis triggered by multiple fibrogenic factors. The anti-fibrotic effects of E4 can be detected whether administered concomitantly with or following the fibrogenic trigger. […]
For these studies, fibrosis was assessed by measurement of dermal thickness on H&E skin sections (skin), assessment of collagen levels by Masson Trichrome staining (skin and lung), and measurement of collagen levels by Sircol assay (lung). […] Results were assessed using the unpaired t test and the 3-way ANOVA (for the ID1 data).

[3] = tested on: mouse lung; test: Bleomycin-induced pulmonary fibrosis in mice; format: in vivo; settings: for fibrosis and Masson Trichrome staining: 10 μg/ml intratracheally, lungs harvested 10 days
Method: FIG. 10A-10C. E4 attenuates bleomycin induced lung fibrosis in vivo. A: Sixty μg of bleomycin was administrated intratracheally in combination with DMSO as a vehicle (Bleo) or E-4 (Bleo+E-4; 10 μg/ml). In some mice, E-4 (10 μg/ml) was administered intratracheally (IT) three days following bleomycin treatment (Bleo+E-4L). PBS was used as a vehicle for bleomycin (V). Lungs were harvested 10 days post-treatment. Representative images stained with H&E (left panel) and Masson trichrome (right panel) are representative of 3 independent experiments. Magnification, 100×. […] B: Quantification of acid soluble collagen obtained from mouse lungs treated as in panel C with V, Bleo, Bleo+E-4, and Bleo+E-4L. The levels of collagen are presented as μg/mg (lung) from three independent experiments. Unpaired-t test was used for statistical analysis. * P<0.05. […] For Bleo+E4L, Bleo was administered first, then there was a lag of three days between Bleo and E4 administration).
FIG. 11. E4 attenuates bleomycin induced lung fibrosis in vivo whether administered intraperitoneally (IP) or intratracheally (IT). Bleomycin was administered IT at day 1, and E4 was administered either IP or IT at day 3. Lungs were harvested at day 21. […] Thus E4 is effective at reducing fibrosis irrespective of the route of administration. Results are shown for vehicle alone (V), bleomycin alone (Bleo), bleomycin and E4 administered IP, and bleomycin and E4 administered IT.
E4, a peptide representing the carboxy terminus of human endostatin, can attenuate fibrosis triggered by multiple fibrogenic factors. The anti-fibrotic effects of E4 can be detected whether administered concomitantly with or following the fibrogenic trigger. The efficacy of E4 was confirmed in […] pre-clinical models of fibrosis: a) bleomycin-induced dermal fibrosis in vivo in mouse skin, b) TGF-β induced dermal fibrosis in mouse skin, and c) bleomycin-induced pulmonary fibrosis. E4 peptide or a control peptide (E1; representing the amino terminal region of endostatin) were administered at the same time as TGF-β or bleomycin or 3-4 days following TGF-β or bleomycin. […]
For these studies, fibrosis was assessed by measurement of dermal thickness on H&E skin sections (skin), assessment of collagen levels by Masson Trichrome staining (skin and lung), and measurement of collagen levels by Sircol assay (lung). Furthermore, to confirm the mechanism by which E4 exerts its anti-fibrotic effects, the production of extra-cellular matrix (ECM) components, the levels of enzymes that promote matrix stabilization and thus accumulation and levels of those that degrade ECM components, and levels of transcription factors downstream of the pro-fibrotic triggers were evaluated. Results were assessed using the unpaired t test and the 3-way ANOVA (for the ID1 data).

[4] = tested on: MMP-2; test: MMP-2 gelatin zymography in primary human lung fibroblasts; format: cell-based
Method: FIG. 14A-14B. A. E4 reduces fibrosis in vitro by inducing MMP-2 activity in primary human lung fibroblasts, thus resulting in increased degradation of collagen and other matrix proteins. Digital image of a gelatin zymography gel showing increased MMP-2 activity when primary human lung fibroblasts are treated with E-4 following TGFβ (lane 4). Lane 1: Vehicle (DMSO); Lane 2: E-4; Lane 3: TGF 3; Lane 4: TGF 3 followed by E4. B. Digital image showing that both total and active MMP-2 levels are increased in cells treated with TGFbeta and E-4.

In the case of “H-^133SYCETWRTEAPSATGQASSLLGGRLLGQSAASCHHAYIVLCIENSFMT^180-CONH2 (H-SYCETWRTEAPSATGQASSLLGGRLLGQSAASCHHAYIVLCIENSFMT-NH2; cysteine pairing not given here; UniProt P39060 1704-1751, looked up, fragment) [E4, amino acids 133-180 of human endostatin; differs from E3 by the presence of a carboxy-terminal amide]”, the “FN and Col1α1 levels/production” value [1] is reported as “significantly suppressed”, the “bleomycin induced dermal fibrosis (dermal thickness)” value [2] is reported as “significant attenuation” and the “fibrosis and Masson Trichrome staining” value ([3]; concomitantly with bleomycin) is reported as “marked reduction”. For the same substance, the “fibrosis and Masson Trichrome staining” value ([3]; three days following bleomycin) was “marked reduction”, the “bleomycin induced lung fibrosis” value ([3]; intraperitoneal at day 3, lungs harvested day 21) was “significant attenuation” and the “bleomycin induced lung fibrosis” value ([3]; intratracheal at day 3, lungs harvested day 21) was “significant attenuation”. For the same substance, the MMP-2 activity ([4]; E-4 following TGFβ, gelatin zymography) was “increased” and the “total and active MMP-2 levels” value ([4]; cells treated with TGFbeta and E-4) was “increased”.
